{
  "source": "patent US20260297109A1",
  "about": "“COMPOUNDS AS SUMO ACTIVATING ENZYME INHIBITORS” (WIGEN BIOMEDICINE TECHNOLOGY (SHANGHAI) CO., LTD., priority 2022, published 2026)",
  "data": [
    {"target": "T1, SAE (Homo sapiens, UniProt Q9UBT2)", "T1 construct": "endogenous in cells; host or cells: HCT116", "T1 sequence (Q9UBT2 1-640)": "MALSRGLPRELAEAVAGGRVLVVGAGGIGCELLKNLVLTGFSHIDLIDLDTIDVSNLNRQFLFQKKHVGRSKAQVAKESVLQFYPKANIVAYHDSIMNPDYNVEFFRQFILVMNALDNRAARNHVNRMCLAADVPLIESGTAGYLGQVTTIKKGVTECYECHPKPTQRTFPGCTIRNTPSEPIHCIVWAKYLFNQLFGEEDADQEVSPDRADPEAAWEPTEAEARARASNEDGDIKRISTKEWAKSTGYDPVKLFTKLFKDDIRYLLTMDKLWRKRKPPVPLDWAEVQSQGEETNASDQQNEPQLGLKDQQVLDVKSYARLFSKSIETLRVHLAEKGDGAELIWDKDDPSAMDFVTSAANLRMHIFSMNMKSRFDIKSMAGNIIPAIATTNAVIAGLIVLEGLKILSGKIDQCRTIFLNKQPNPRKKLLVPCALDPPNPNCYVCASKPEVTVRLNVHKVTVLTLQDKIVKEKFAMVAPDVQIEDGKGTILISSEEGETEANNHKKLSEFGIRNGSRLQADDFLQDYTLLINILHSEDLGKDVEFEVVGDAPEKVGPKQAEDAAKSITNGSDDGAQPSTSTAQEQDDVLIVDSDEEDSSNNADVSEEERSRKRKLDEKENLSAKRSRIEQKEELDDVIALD", "T1 sequence (Q9UBE0 1-346)": "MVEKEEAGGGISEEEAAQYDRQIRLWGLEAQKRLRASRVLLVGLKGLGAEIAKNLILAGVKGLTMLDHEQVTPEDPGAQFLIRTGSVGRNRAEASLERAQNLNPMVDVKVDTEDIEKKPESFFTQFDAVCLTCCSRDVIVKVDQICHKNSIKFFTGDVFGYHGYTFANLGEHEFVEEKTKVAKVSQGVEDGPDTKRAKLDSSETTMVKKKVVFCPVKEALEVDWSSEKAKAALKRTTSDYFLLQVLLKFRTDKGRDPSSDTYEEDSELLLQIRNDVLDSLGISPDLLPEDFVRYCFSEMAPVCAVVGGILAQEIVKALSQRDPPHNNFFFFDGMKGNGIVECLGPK", "assay": "SUMO IF: in vitro inhibitory activity assay against SAE in HCT116 cells (SUMO-2/3 immunofluorescence)", "type": "cell-based", "conditions": "class symbols, 6 h at 37° C.", "outline": "(§1)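 HCT116 cells were treated with compound for 6 h at 37 °C, then PFA-fixed, Triton-permeabilised and BSA-blocked. They were stained overnight at 4 °C with anti-SUMO-2/3 (18H8) rabbit mAb (1:400), then with FITC anti-rabbit IgG (1:300). Fluorescence versus DMSO gave inhibition rate and IC50.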", "units": {"IC50": "nM"}, "values": [
      {"smiles": "C=CCN1Cc2sc(C(=O)c3cncnc3N[C@H]3C[C@H](O)[C@@H](COS(N)(=O)=O)[C@@H]3F)cc2C2(C1)NCCc1ccc(Cl)cc12", "note": "(some centres unmarked) [Compound 654]", "IC50": "≤ 50"},
      {"smiles": "C#CCN1Cc2sc(C(=O)c3cncnc3N[C@H]3C[C@H](O)[C@@H](COS(N)(=O)=O)[C@@H]3F)cc2C2(C1)NCCc1ccc(Cl)cc12", "note": "(some centres unmarked) [Compound 657]", "IC50": "≤ 50"},
      {"smiles": "[2H]C1([2H])Cc2ccc(Cl)cc2C2(CCCc3sc(C(=O)c4cncnc4N[C@H]4C[C@H](O)[C@@H](COS(N)(=O)=O)[C@@H]4F)cc32)N1", "note": "(some centres unmarked) [Compound 660]", "IC50": "50 to 200"},
      {"smiles": "[2H]C1([2H])CNC2(CCCc3sc(C(=O)c4cncnc4N[C@H]4C[C@H](O)[C@@H](COS(N)(=O)=O)[C@@H]4F)cc32)c2cc(Cl)ccc21", "note": "(some centres unmarked) [Compound 663]", "IC50": "≤ 50"},
      {"smiles": "Cc1ccc2c(c1)[C@@]1(CCCc3sc(C(=O)c4cncnc4N[C@H]4C[C@H](O)[C@@H](COS(N)(=O)=O)[C@@H]4F)cc31)NCC2", "note": "[Compound 666]", "IC50": "50 to 200"},
      {"smiles": "NS(=O)(=O)OC[C@H]1[C@H](F)[C@@H](Nc2ncncc2C(=O)c2cc3c(s2)CCC[C@]32NCCc3ccc(C4CC4)cc32)C[C@@H]1O", "note": "[Compound 667]", "IC50": "50 to 200"},
      {"smiles": "C#Cc1ccc2c(c1)[C@@]1(CCCc3sc(C(=O)c4cncnc4N[C@H]4C[C@H](O)[C@@H](COS(N)(=O)=O)[C@@H]4F)cc31)NCC2", "note": "[Compound 668]", "IC50": "50 to 200"},
      {"smiles": "NS(=O)(=O)OC[C@H]1[C@H](F)[C@@H](Nc2ncncc2C(=O)c2cc3c(s2)CCC[C@]32NCCc3ccc(C(F)(F)F)cc32)C[C@@H]1O", "note": "[Compound 669]", "IC50": "50 to 200"},
      {"smiles": "NS(=O)(=O)OC[C@H]1[C@H](F)[C@@H](Nc2ncncc2C(=O)c2cc3c(s2)CCC[C@]32NCCc3cc(F)c(F)cc32)C[C@@H]1O", "note": "[Compound 670]", "IC50": "≤ 50"},
      {"smiles": "NS(=O)(=O)OC[C@H]1[C@H](F)[C@@H](Nc2ncncc2C(=O)c2cc3c(s2)CCC[C@]32NCCc3cc(F)c(Cl)cc32)C[C@@H]1O", "note": "[Compound 671]", "IC50": "≤ 50"},
      {"smiles": "NS(=O)(=O)OC[C@H]1[C@H](F)[C@@H](Nc2ncncc2C(=O)c2cc3c(s2)CCC[C@]32NCCc3cc(Cl)c(Cl)cc32)C[C@@H]1O", "note": "[Compound 672]", "IC50": "≤ 50"},
      {"smiles": "Cc1cc2c(cc1Cl)[C@@]1(CCCc3sc(C(=O)c4cncnc4N[C@H]4C[C@H](O)[C@@H](COS(N)(=O)=O)[C@@H]4F)cc31)NCC2", "note": "[Compound 673]", "IC50": "≤ 50"},
      {"smiles": "N#Cc1cc2c(cc1Cl)[C@@]1(CCCc3sc(C(=O)c4cncnc4N[C@H]4C[C@H](O)[C@@H](COS(N)(=O)=O)[C@@H]4F)cc31)NCC2", "note": "[Compound 674]", "IC50": "≤ 50"},
      {"smiles": "COc1cc2c(cc1Cl)[C@@]1(CCCc3sc(C(=O)c4cncnc4N[C@H]4C[C@H](O)[C@@H](COS(N)(=O)=O)[C@@H]4F)cc31)NCC2", "note": "[Compound 675]", "IC50": "50 to 200"},
      {"smiles": "NS(=O)(=O)OC[C@H]1[C@H](F)[C@@H](Nc2ncncc2C(=O)c2cc3c(s2)CCC[C@]32NCCc3cc(F)c(Cl)c(F)c32)C[C@@H]1O", "note": "[Compound 676]", "IC50": "≤ 50"},
      {"smiles": "NS(=O)(=O)OC[C@H]1[C@H](F)[C@@H](Nc2ncncc2C(=O)c2cc3c(s2)CCC[C@]32NCCc3cc(Cl)c(F)cc32)C[C@@H]1O", "note": "[Compound 677]", "IC50": "≤ 50"},
      {"smiles": "NS(=O)(=O)OC[C@H]1[C@H](F)[C@@H](Nc2ncncc2C(=O)c2cc3c(s2)CCC[C@]32NCCc3ccncc32)C[C@@H]1O", "note": "[Compound 678]", "IC50": "50 to 200"},
      {"smiles": "NS(=O)(=O)OC[C@H]1[C@H](F)[C@@H](Nc2ncncc2C(=O)c2cc3c(s2)CCC[C@]32NCCc3cc(Cl)ncc32)C[C@@H]1O", "note": "[Compound 679]", "IC50": "50 to 200"},
      {"smiles": "NS(=O)(=O)OC[C@H]1[C@H](F)[C@@H](Nc2ncncc2C(=O)c2cc3c(s2)C=CC[C@]32NCCc3ccc(Cl)cc32)C[C@@H]1O", "note": "[Compound 680]", "IC50": "≤ 50"},
      {"smiles": "NS(=O)(=O)OC[C@H]1[C@H](F)[C@@H](Nc2ncncc2C(=O)c2cc3c(s2)CC=C[C@]32NCCc3ccc(Cl)cc32)C[C@@H]1O", "note": "[Compound 681]", "IC50": "≤ 50"},
      {"smiles": "NS(=O)(=O)OC[C@H]1[C@H](F)[C@@H](Nc2ncncc2C(=O)c2cc3c(s2)OCC[C@]32NCCc3ccc(Cl)cc32)C[C@@H]1O", "note": "[Compound 682]", "IC50": "50 to 200"},
      {"smiles": "NS(=O)(=O)OC[C@H]1[C@H](F)[C@@H](Nc2ncncc2C(=O)c2cc3c(s2)CCC[C@]32NC3(CC3)Cc3ccc(Cl)cc32)C[C@@H]1O", "note": "[Compound 684]", "IC50": "50 to 200"},
      {"smiles": "NS(=O)(=O)OC[C@H]1[C@H](F)[C@@H](Nc2ncncc2C(=O)c2cc3c(s2)CCC[C@@]32OCCc3ccc(Cl)cc32)C[C@@H]1O", "note": "[Compound 685]", "IC50": "> 200"},
      {"smiles": "NS(=O)(=O)OC[C@H]1[C@H](F)[C@@H](Nc2ncncc2C(=O)c2cc3c(s2)CCC[C@]32OCCc3ccc(Cl)cc32)C[C@@H]1O", "note": "[Compound 686]", "IC50": "≤ 50"},
      {"smiles": "Cc1ccc2c(c1)[C@@]1(CCc3sc(C(=O)c4cncnc4N[C@H]4C[C@H](O)[C@@H](COS(N)(=O)=O)[C@@H]4F)cc31)NCC2", "note": "[Compound 687]", "IC50": "50 to 200"},
      {"smiles": "NS(=O)(=O)OC[C@H]1[C@H](F)[C@@H](Nc2ncncc2C(=O)c2cc3c(s2)CC[C@]32NCCc3ccc(C4CC4)cc32)C[C@@H]1O", "note": "[Compound 688]", "IC50": "50 to 200"},
      {"smiles": "COc1ccc2c(c1)[C@@]1(CCc3sc(C(=O)c4cncnc4N[C@H]4C[C@H](O)[C@@H](COS(N)(=O)=O)[C@@H]4F)cc31)NCC2", "note": "[Compound 689]", "IC50": "50 to 200"},
      {"smiles": "NS(=O)(=O)OC[C@H]1[C@H](F)[C@@H](Nc2ncncc2C(=O)c2cc3c(s2)CC[C@]32NCCc3ccc(C(F)(F)F)cc32)C[C@@H]1O", "note": "[Compound 690]", "IC50": "50 to 200"},
      {"smiles": "NS(=O)(=O)OC[C@H]1[C@H](F)[C@@H](Nc2ncncc2C(=O)c2cc3c(s2)CC[C@]32NCCc3cc(F)c(F)cc32)C[C@@H]1O", "note": "[Compound 691]", "IC50": "≤ 50"}
    ]},
    {"target": "T1, SAE", "assay": "SUMO IF: in vitro inhibitory activity assay against SAE in HCT116 cells (SUMO-2/3 immunofluorescence)", "type": "cell-based", "conditions": "numeric values, 6 h at 37° C.", "outline": "as §1", "units": {"IC50": "nM"}, "values": [
      {"smiles": "NS(=O)(=O)OC[C@H]1[C@H](F)[C@@H](Nc2ncncc2C(=O)c2cc3c(s2)CN(CC(F)(F)F)C[C@@]32NCCc3ccc(Cl)cc32)C[C@@H]1O", "note": "[Compound 652]", "IC50": "> 1000"},
      {"smiles": "NS(=O)(=O)OC[C@H]1[C@H](F)[C@@H](Nc2ncncc2C(=O)c2cc3c(s2)CN(CC(F)(F)F)C[C@]32NCCc3ccc(Cl)cc32)C[C@@H]1O", "note": "[Compound 653]", "IC50": 25.9},
      {"smiles": "C=CCN1Cc2sc(C(=O)c3cncnc3N[C@H]3C[C@H](O)[C@@H](COS(N)(=O)=O)[C@@H]3F)cc2[C@@]2(C1)NCCc1ccc(Cl)cc12", "note": "[Compound 655]", "IC50": "> 1000"},
      {"smiles": "C=CCN1Cc2sc(C(=O)c3cncnc3N[C@H]3C[C@H](O)[C@@H](COS(N)(=O)=O)[C@@H]3F)cc2[C@]2(C1)NCCc1ccc(Cl)cc12", "note": "[Compound 656]", "IC50": 25.1},
      {"smiles": "C#CCN1Cc2sc(C(=O)c3cncnc3N[C@H]3C[C@H](O)[C@@H](COS(N)(=O)=O)[C@@H]3F)cc2[C@@]2(C1)NCCc1ccc(Cl)cc12", "note": "[Compound 658]", "IC50": "> 1000"},
      {"smiles": "C#CCN1Cc2sc(C(=O)c3cncnc3N[C@H]3C[C@H](O)[C@@H](COS(N)(=O)=O)[C@@H]3F)cc2[C@]2(C1)NCCc1ccc(Cl)cc12", "note": "[Compound 659]", "IC50": 20.3},
      {"smiles": "[2H]C1([2H])Cc2ccc(Cl)cc2[C@]2(CCCc3sc(C(=O)c4cncnc4N[C@H]4C[C@H](O)[C@@H](COS(N)(=O)=O)[C@@H]4F)cc32)N1", "note": "[Compound 661]", "IC50": "> 1000"},
      {"smiles": "[2H]C1([2H])Cc2ccc(Cl)cc2[C@@]2(CCCc3sc(C(=O)c4cncnc4N[C@H]4C[C@H](O)[C@@H](COS(N)(=O)=O)[C@@H]4F)cc32)N1", "note": "[Compound 662]", "IC50": 23.5},
      {"smiles": "[2H]C1([2H])CN[C@]2(CCCc3sc(C(=O)c4cncnc4N[C@H]4C[C@H](O)[C@@H](COS(N)(=O)=O)[C@@H]4F)cc32)c2cc(Cl)ccc21", "note": "[Compound 665]", "IC50": 20.6}
    ]}
  ]
}
